The record followed here is patent US20230145342A1, “COMBINATORY TREATMENT” (AALTO UNIVERSITY FOUNDATION SR, priority 2020, published 2023).

As a reminder, the MIC is the lowest concentration that inhibits growth of the organism. A high value points to a need for much substance.

In brackets after ≈: the same amount, converted by molar mass.

In assay [1] the test system is multidrug resistant P. aeruginosa strain PA 5834. As to the kind of experiment: MIC of antibiotics without and with P[5]a, Luria broth (sensitizing effect test). The assay is classed as cell-based, Pseudomonas aeruginosa. How it is done: Values in blue, yellow and orange indicate the bacterium is categorized as “susceptible”, “intermediate susceptible” and “resistant”, respectively, according to the “Performance Standards for Antimicrobial Susceptibility Testing”, which is maintained by the Clinical and Laboratory Standards Institute.
So, it was tested whether P[5]a could sensitize (increase the efficacy of) already resistant P. aeruginosa strains PA 5834 (FIG. 4) and PA 5539 (FIG. 5), that are resistant to a wide variety of antibiotics. To test this, two MDR P. aeruginosa strains from clinical isolates were used. These isolates were obtained from patients in the Meilahti hospital (Helsinki, Finland). The antibiotics used, and their different mechanisms of actions, are described in Table 2.
In FIG. 4 with P. aeruginosa strain PA 5834, P[5]a made the bacterium classify as “susceptible” again, whereas without P[5]a it was fully “resistant” to the antibiotics ceftazidime and cefepime (even growing in the highest concentration we tested). This could have major implications, because there have been many encounters already of “Pan-Drug resistant bacteria” bacteria that are classified as “resistant” to all known antibiotics. They are basically untreatable by current standards. P[5]a Virulence inhibitors, might make those bacteria susceptible again for treatment. In FIG. 5 with P. aeruginosa strain PA 5539, the overall resistance profile of the bacterium was much lower. […] Further testing was done on six resistant P. aeruginosa strains from the Helsinki hospital collection, PA 5550, PA 5842, PA 5827, PA 5832, PA 5834 and PA 5539 with four different antibiotics (amikacin, cefepime, ceftazidime and meropenem).

Assay [2] deals with Pseudomonas aeruginosa 2798 (ATCC 2798). As to the kind of experiment: Resistance profile of strain (Table 3). Particulars: strain 2798 (ATCC 2798). Type of assay: cell-based. The source says: (§1) The effect of P[5]a on the penetration and efficacy of coadministered antibiotics Amikacin (a), Cefepime (b), Ceftazidime (c) and Meropenem (d) in MDR resistant clinical isolates were studied.

In assay [3] the test system is Pseudomonas aeruginosa 5542. As to the kind of experiment: Resistance profile of strain (Table 3). The note with it: strain 5542 P. aeruginosa. The assay is classed as cell-based.
Excerpt: as §1

The subject of assay [4] is Pseudomonas aeruginosa 5550. Description: Resistance profile of strain (Table 3). Type of assay: cell-based. The note with it: strain 5550.
Excerpt: as §1

The subject of assay [5] is Pseudomonas aeruginosa 5832. As to the kind of experiment: Resistance profile of strain (Table 3). The assay is classed as cell-based. Particulars: strain 5832.
Excerpt: as §1

Assay [6] relates to Pseudomonas aeruginosa 5834. Description: Resistance profile of strain (Table 3). Type of assay: cell-based. The note with it: strain 5834.
Excerpt: as §1

Assay [7] deals with Pseudomonas aeruginosa 5827. As to the kind of experiment: Resistance profile of strain (Table 3). Type of assay: cell-based. The note with it: strain 5827.
Assay [8] deals with Pseudomonas aeruginosa 5539. Description: Resistance profile of strain (Table 3). Type of assay: cell-based. Particulars: strain 5539.
Assay [9] deals with P. aeruginosa PAO1. Description: Antibiotic resistance buildup, daily MIC over 14 consecutive days. Type of assay: cell-based, Pseudomonas aeruginosa. The text has this: Area below the yellow line means that the bacterium is classified as susceptible to the antibiotic. The area in between yellow and red means that the bacterium is intermediate susceptible to the antibiotic. The area above the red line means that the bacterium is classified as resistant to the antibiotic (According to the “Performance Standards for Antimicrobial Susceptibility Testing”, which is maintained by the Clinical and Laboratory Standards Institute).
Because of this, a combined administration of P[5]a with a variety of antibiotics was tested. MIC values with two different antibiotics, meropenem and cefepime (FIG. 2) were tested, over a period of 14 consecutive days (which more than surpasses the length of normal treatments, 7-10 days), when administered together with and without 2.5 mM P[5]a.
In this experiment, the minimum inhibitory concentration MIC was analyzed daily for 14 consecutive days, and the highest MIC values (so the highest concentration of antibiotic where the bacteria still grew) was used for the next day. This way, the buildup of resistance over time can be monitored. In FIG. 2, the area below the yellow line means that the bacterium is classified as susceptible to the antibiotic, the area in between yellow and red means that the bacterium is intermediate susceptible to the antibiotic and the area above the red line means that the bacterium is classified as resistant to the antibiotic (According to the “Performance Standards for Antimicrobial Susceptibility Testing”, which is maintained by the Clinical and Laboratory Standards Institute).
The effect of P[5]a on encountering resistance development in a pathogenic Gram-negative bacterium, Pserudomonas aeruginosa, strain PA01 was studied over 14-day period. The development of resistance over 14 continuous days by the pathogen PAO1 towards treatment with four clinically relevant antibiotics (meropenem, cefepime, aztreonam and tobramycin) and P[5]a was compared. […] In all antibiotic treatments, reduced susceptibility was observed from day 4 onwards, with complete resistance to all treatments after 12 days.
The effect of P[5]a on the enhancement of the penetration of coadministered antibiotics having intracellular targets (aztreonam, cefepime, meropenem and tobramycin) was studied over 14-day period in a pathogenic Gram-negative bacterium, Pserudomonas aeruginosa, strain PA01. […] MIC values were categorized in three groups according to the Clinical and Laboratory Standards Institute: susceptible, intermediate susceptible and resistant.

`CC(C)(O/N=C(\C(=O)N[C@@H]1C(=O)N2C(C(=O)[O-])=C(C[n+]3ccccc3)CS[C@H]12)c1csc(N)n1)C(=O)O` [ceftazidime, Ceftazidime]: the “susceptibility classification (CLSI)” value in assay [1] (with P[5]a) is “susceptible”; in assay [1] (without P[5]a), “resistant”. In addition, the “Antibiotic resistance (category)” value in [2] is “Aztreonam & Cefepime, Resistant to Ceftazidime, Cirpofloxacin,”; in assay [3] it was “resistant”; in [4] it was “resistant”; in [5], “resistant”; in assay [6], “resistant”; in assay [7] it was “resistant”. The “Antibiotic resistance (category)” value in assay [8] is on record as “resistant”. The “Antibiotic resistance (value given with the category, MIC)” value in [3] is 32 µg; in assay [4], 16 µg; in assay [5] it was 16 µg; in assay [6], “cefepime 64 ug, ceftazidime 64 ug and meropenem 64 ug”; in assay [7], 64 µg; in assay [8], 8 µg.
Consider `CO/N=C(\C(=O)N[C@@H]1C(=O)N2C(C(=O)[O-])=C(C[N+]3(C)CCCC3)CS[C@H]12)c1csc(N)n1` [cefepime, Cefepime], for which, in [9] (Pseudomonas aeruginosa, PAO1, 96 h, after four days, highest concentration of antibiotic included), it took 128 µg/mL (≈ 266 µM) to inhibit growth (MIC). In [9] (coadministration of P[5]a with the antibiotic, 14-day period), the “development of resistance by the pathogen to the respective antibiotic” value is on record as “greatly slowed”. The “susceptibility classification (CLSI)” value is listed as “susceptible” in assay [1] (with P[5]a) and “resistant” in assay [1] (without P[5]a). Further, the “Antibiotic resistance (category)” value in assay [2] was “Intermediate susceptible”; in assay [3], “resistant”; in [4], “Intermediate susceptible”; in assay [5], “Intermediate susceptible”; in assay [6] it was “resistant”; in [7], “resistant”. Moreover, in assay [8], the “Antibiotic resistance (category)” value was “intermediate”. Moreover, the “Antibiotic resistance (value given with the category, MIC)” value in assay [3] is 32 µg; in assay [4] it was 16 µg; in assay [5], 8 µg; in [6], “cefepime 64 ug, ceftazidime 64 ug and meropenem 64 ug”; in assay [7] it was 32 µg; in [8], 8 µg.
